Test results: patent publication US8722578B2, “Spiroheterocyclic pyrrolidinedione herbicidal compositions” (Syngenta Participations AG, priority 2008, dated 2014)

Legend:
[1] = system: Alopecurus myosuroides (ALOMY); assay: Example A pre-emergence herbicidal activity, glasshouse pot test; format: in vivo; details: 480 h, rate 250 g/ha, evaluated 20 days after spraying, read-out: ALOMY pre-emergence activity (100=total damage to plant; 0=no damage to plant)
Method: (§1) Monocotyledonous and dicotyledonous test plants are sown in standard soil in pots. After cultivation for one day (pre-emergence) or after 10 days cultivation (post-emergence) under controlled conditions in a glasshouse, the plants are sprayed with an aqueous spray solution derived from the formulation of the technical active ingredient in 0.6 ml acetone and 45 ml formulation solution containing 10.6% Emulsogen EL (Registry number 61791-12-6), 42.2% N-methylpyrrolidone, 42.2% dipropylene glycol monomethyl ether (Registry number 34590-94-8) and 0.2% X-77 (Registry number 11097-66-8). The test plants are then grown in a greenhouse under optimum conditions until, 15 days later for post-emergence and 20 days for pre-emergence, the test is evaluated (100=total damage to plant; 0=no damage to plant). Test Plants: Alopecurus myosuroides (ALOMY), Avena fatua (AVEFA), Lolium perenne (LOLPE), Setaria faberi (SETFA), Digitaria sanguinalis (DIGSA), Echinochloa crus-galli (ECHCG) Pre-Emergence Activity

[2] = system: Avena fatua (AVEFA); assay: as above; format: in vivo; details: 480 h, rate 250 g/ha, evaluated 20 days after spraying, read-out: AVEFA pre-emergence activity (100=total damage to plant; 0=no damage to plant)
Method: as §1

[3] = system: Digitaria sanguinalis (DIGSA); assay: as above; format: in vivo; details: 480 h, rate 250 g/ha, evaluated 20 days after spraying, read-out: DIGSA pre-emergence activity (100=total damage to plant; 0=no damage to plant)
Method: as §1

[4] = system: Echinochloa crus-galli (ECHCG); assay: as above; format: in vivo; details: 480 h, rate 250 g/ha, evaluated 20 days after spraying, read-out: ECHOG pre-emergence activity (100=total damage to plant; 0=no damage to plant)
Method: as §1

[5] = system: Lolium perenne (LOLPE); assay: as above; format: in vivo; details: 480 h, rate 250 g/ha, evaluated 20 days after spraying, read-out: LOLPE pre-emergence activity (100=total damage to plant; 0=no damage to plant)
Method: as §1

[6] = system: Setaria faberi (SETFA); assay: as above; format: in vivo; details: 480 h, rate 250 g/ha, evaluated 20 days after spraying, read-out: SETFA pre-emergence activity (100=total damage to plant; 0=no damage to plant)
Method: as §1

[7] = system: Alopecurus myosuroides (ALOMY); assay: Example A post-emergence herbicidal activity, glasshouse pot test; format: in vivo; details: 360 h, rate 125 g/ha, evaluated 15 days after spraying, read-out: ALOMY post-emergence activity (100=total damage to plant; 0=no damage to plant)
Method: as §1, with “Post-Emergence” for “Pre-Emergence”

[8] = system: Avena fatua (AVEFA); assay: as above; format: in vivo; details: 360 h, rate 125 g/ha, evaluated 15 days after spraying, read-out: AVEFA post-emergence activity (100=total damage to plant; 0=no damage to plant)
Method: as §1, with “Post-Emergence” for “Pre-Emergence”

[9] = system: Digitaria sanguinalis (DIGSA); assay: as above; format: in vivo; details: 360 h, rate 125 g/ha, evaluated 15 days after spraying, read-out: DIGSA post-emergence activity (100=total damage to plant; 0=no damage to plant)
Method: as §1, with “Post-Emergence” for “Pre-Emergence”

[10] = system: Echinochloa crus-galli (ECHCG); assay: as above; format: in vivo; details: 360 h, rate 125 g/ha, evaluated 15 days after spraying, read-out: ECHOG post-emergence activity (100=total damage to plant; 0=no damage to plant)
Method: as §1, with “Post-Emergence” for “Pre-Emergence”

[11] = system: Lolium perenne (LOLPE); assay: as above; format: in vivo; details: 360 h, rate 125 g/ha, evaluated 15 days after spraying, read-out: LOLPE post-emergence activity (100=total damage to plant; 0=no damage to plant)
Method: as §1, with “Post-Emergence” for “Pre-Emergence”

[12] = system: Setaria faberi (SETFA); assay: as above; format: in vivo; details: 360 h, rate 125 g/ha, evaluated 15 days after spraying, read-out: SETFA post-emergence activity (100=total damage to plant; 0=no damage to plant)
Method: as §1, with “Post-Emergence” for “Pre-Emergence”

[13] = system: Alopecurus myosuroides (ALOMY); assay: Example B post-emergence herbicidal activity, glasshouse pot test; format: in vivo; details: 312 h, rate 1000 g/ha, evaluated after 13 days, read-out: ALOMY post-emergence activity (100=total damage to plant; 0=no damage to plant)
Method: (§2) Seeds of a variety of test species are sown in standard soil in pots. After cultivation for one day (pre-emergence) or after 8 days cultivation (post-emergence) under controlled conditions in a glasshouse (at 24/16° C., day/night; 14 hours light; 65% humidity), the plants are sprayed with an aqueous spray solution derived from the formulation of the technical active ingredient in acetone/water (50:50) solution containing 0.5% Tween 20 (polyoxyethelyene sorbitan monolaurate, CAS RN 9005-64-5). The test plants are then grown in a glasshouse under controlled conditions in a glasshouse (at 24/16° C., day/night; 14 hours light; 65% humidity) and watered twice daily. After 13 days for pre and post-emergence, the test is evaluated (100=total damage to plant; 0=no damage to plant). Test Plants: Setaria faberi (SETFA), Alopecurus myosuroides (ALOMY), Echinochloa crus-galli (ECHCG), Avena fatua (AVEFA)

[14] = system: Avena fatua (AVEFA); assay: as above; format: in vivo; details: 312 h, rate 1000 g/ha, evaluated after 13 days, read-out: AVEFA post-emergence activity (100=total damage to plant; 0=no damage to plant)
Method: as §2

[15] = system: Echinochloa crus-galli (ECHCG); assay: as above; format: in vivo; details: 312 h, rate 1000 g/ha, evaluated after 13 days, read-out: ECHCG post-emergence activity (100=total damage to plant; 0=no damage to plant)
Method: as §2

[16] = system: Setaria faberi (SETFA); assay: as above; format: in vivo; details: 312 h, rate 1000 g/ha, evaluated after 13 days, read-out: SETFA post-emergence activity (100=total damage to plant; 0=no damage to plant)
Method: as §2

[17] = system: Alopecurus myosuroides (ALOMY); assay: Example B pre-emergence herbicidal activity, glasshouse pot test; format: in vivo; details: 312 h, first table (headed Post-Emergence, taken as pre-emergence), rate 1000 g/ha, evaluated after 13 days, read-out: ALOMY activity (100=total damage to plant; 0=no damage to plant)
Method: as §2

[18] = system: Avena fatua (AVEFA); assay: as above; format: in vivo; details: 312 h, first table (headed Post-Emergence, taken as pre-emergence), rate 1000 g/ha, evaluated after 13 days, read-out: AVEFA activity (100=total damage to plant; 0=no damage to plant)
Method: as §2

[19] = system: Echinochloa crus-galli (ECHCG); assay: as above; format: in vivo; details: 312 h, first table (headed Post-Emergence, taken as pre-emergence), rate 1000 g/ha, evaluated after 13 days, read-out: ECHCG activity (100=total damage to plant; 0=no damage to plant)
Method: as §2

[20] = system: Setaria faberi (SETFA); assay: as above; format: in vivo; details: 312 h, first table (headed Post-Emergence, taken as pre-emergence), rate 1000 g/ha, evaluated after 13 days, read-out: SETFA activity (100=total damage to plant; 0=no damage to plant)
Method: as §2

Structure (SMILES) | pest or weed control at 250 g/ha [1] [%] | pest or weed control at 250 g/ha [2] [%] | pest or weed control at 250 g/ha [3] [%] | pest or weed control at 250 g/ha [4] [%] | pest or weed control at 250 g/ha [5] [%] | pest or weed control at 250 g/ha [6] [%] | pest or weed control at 125 g/ha [7] [%] | pest or weed control at 125 g/ha [8] [%] | pest or weed control at 125 g/ha [9] [%] | pest or weed control at 125 g/ha [10] [%] | pest or weed control at 125 g/ha [11] [%] | pest or weed control at 125 g/ha [12] [%] | pest or weed control at 1000 g/ha [13] [%] | pest or weed control at 1000 g/ha [14] [%] | pest or weed control at 1000 g/ha [15] [%] | pest or weed control at 1000 g/ha [16] [%] | pest or weed control at 1000 g/ha [17] [%] | pest or weed control at 1000 g/ha [18] [%] | pest or weed control at 1000 g/ha [19] [%] | pest or weed control at 1000 g/ha [20] [%] | other results
CON1CCC2(CC1)NC(=O)C(c1cc(-c3ccc(Cl)cc3)ccc1C)C2=O (stereo not drawn) [Compound T9] | 0 | 60 | 0 | 10 | 30 | 0 | 90 | 80 | 100 | 100 | 50 | 90 | 80 | 90 | 100 | 100 | – | – | – | – | –
CCOC(=O)OC1=C(c2cc(-c3ccc(Cl)cc3)ccc2C)C(=O)NC12CCN(OC)CC2 [Compound P29] | 20 | 50 | 20 | 60 | 10 | 0 | 90 | 90 | 100 | 100 | 80 | 90 | 100 | 100 | 100 | 100 | 70 | 90 | 100 | 100 | melting point: 209 to 211 °C
C=CCOC(=O)OC1=C(c2c(C)cc(C)cc2C)C(=O)NC12CCN(OC)CC2 [Compound P43] | 80 | 70 | 90 | 80 | 70 | 80 | 60 | 40 | 70 | 60 | 70 | 50 | 90 | 90 | 90 | 90 | 100 | 90 | 100 | 100 | melting point: 174 to 176 °C
CCOC(=O)OC1=C(c2c(C)cc(C)cc2C)C(=O)NC12CCN(OC)CC2 [Compound P18] | 60 | 70 | 20 | 30 | 70 | 20 | 70 | 60 | 80 | 80 | 70 | 60 | 100 | 90 | 100 | 100 | 100 | 90 | 100 | 100 | –
CON1CCC2(CC1)NC(=O)C(c1ccc(Cl)cc1Cl)C2=O (stereo not drawn) [Compound T2] | – | – | – | – | – | – | – | – | – | – | – | – | 100 | 90 | 100 | 100 | 60 | 40 | 0 | 30 | melting point: 221 to 223 °C
CON1CCC2(CC1)NC(=O)C(c1ccc(Cl)cc1Cl)=C2OC(=O)N(C)CCC#N [Compound P39] | – | – | – | – | – | – | – | – | – | – | – | – | 10 | 0 | 40 | 50 | 0 | 0 | 30 | 60 | melting point: 171 to 172 °C
